Measurements reported in BindingDB's records for doi:10.1021/jm0000416 (University of Paris, 2000).
Numbered stars: 1 amine (or outer) side, 2 acyl side, 3 side chain; on linkers, the order of the positions; unused ones are H or OH. Square brackets hold non-standard residues; d marks the D form. Peptide text beside a SMILES is read from it. * marks the point of attachment. Heptanedioyl = O=C(CCCCCC(=O)[*:2])[*:1]; NMeNle = CCCC[C@H](NC)C(=O)O; Malonamoyl = NC(=O)CC(=O)*; Methoxyacetyl = COCC(=O)*; Isobutyryl = CC(C)C(=O)*; X3 = O=C(CS(=O)(=O)O)*; Boc = CC(C)(C)OC(=O)*; X2 = COC(=O)CC(=O)*; X4 = CC(=O)CC(=O)*; βAla = NCCC(=O)O

Each compound was assayed against Gastrin/cholecystokinin type B receptor (Cavia porcellus) (assay: Binding affinity against cholecystokinin type B receptor on guinea pig cortex.).

| Ki [nM] | Compound |
| --- | --- |
| 20 | CCCC[C@@H](C(=O)N[C@@H](CC(=O)O)C(=O)N[C@@H](Cc1ccccc1)C(N)=O)N(C)C(=O)[C@H](Cc1c[nH]c2ccccc12)NC(=O)[C@H](C)N [3-(2-{[2-(2-Amino-propionylamino)-3-(1H-indol-3-yl)-propionyl]-methyl-amino}-hexanoylamino)-N-(1-carbamoyl-2-phenyl-ethyl)-succinamic acid] |
| 2.05 | CCCC[C@@H](C(=O)N[C@@H](CC(=O)O)C(=O)N[C@@H](Cc1ccccc1)C(N)=O)N(C)C(=O)[C@H](Cc1c[nH]c2ccccc12)NC(=O)CC(N)=O [3-(2-{[2-(2-Carbamoyl-acetylamino)-3-(1H-indol-3-yl)-propionyl]-methyl-amino}-hexanoylamino)-N-(1-carbamoyl-2-phenyl-ethyl)-succinamic acid] (Malonamoyl-W[NMeNle]DF-NH2) |
| 95 | CCCC[C@@H](C(=O)N[C@@H](CC(=O)O)C(=O)N[C@@H](Cc1ccccc1)C(N)=O)N(C)C(=O)[C@H](Cc1c[nH]c2ccccc12)NC(=O)CCN [3-(2-{[2-(3-Amino-propionylamino)-3-(1H-indol-3-yl)-propionyl]-methyl-amino}-hexanoylamino)-N-(1-carbamoyl-2-phenyl-ethyl)-succinamic acid] (H-[βAla]W[NMeNle]DF-NH2) |
| 2.6 | CCCC[C@@H](C(=O)N[C@@H](CC(=O)O)C(=O)N[C@@H](Cc1ccccc1)C(N)=O)N(C)C(=O)[C@@H](N)Cc1c[nH]c2ccccc12 [3-(2-{[2-Amino-3-(1H-indol-3-yl)-propionyl]-methyl-amino}-hexanoylamino)-N-(1-carbamoyl-2-phenyl-ethyl)-succinamic acid] (H-W[NMeNle]DF-NH2) |
| 992 | CCCC[C@@H](C(=O)N[C@@H](CC(=O)O)C(=O)N[C@@H](Cc1ccccc1)C(N)=O)N(C)C(=O)[C@H](Cc1c[nH]c2ccccc12)NC(=O)CCCCCC(=O)O [6-[1-({1-[1-(1-Carbamoyl-2-phenyl-ethylcarbamoyl)-2-carboxy-ethylcarbamoyl]-pentyl}-methyl-carbamoyl)-2-(1H-indol-3-yl)-ethylcarbamoyl]-hexanoic acid] (Heptanedioyl-W[NMeNle]DF-NH2) |
| 2.52 | CCCC[C@@H](C(=O)N[C@@H](CC(=O)O)C(=O)N[C@@H](Cc1ccccc1)C(N)=O)N(C)C(=O)[C@H](Cc1c[nH]c2ccccc12)NC(=O)COC [N-(1-Carbamoyl-2-phenyl-ethyl)-3-(2-{[3-(1H-indol-3-yl)-2-(2-methoxy-acetylamino)-propionyl]-methyl-amino}-hexanoylamino)-succinamic acid] (Methoxyacetyl-W[NMeNle]DF-NH2) |
| 3.61 | CCCC[C@@H](C(=O)N[C@@H](CC(=O)O)C(=O)N[C@@H](Cc1ccccc1)C(N)=O)N(C)C(=O)[C@H](Cc1c[nH]c2ccccc12)NC(=O)CC(=O)OC [N-(1-Carbamoyl-2-phenyl-ethyl)-3-(2-{[3-(1H-indol-3-yl)-2-(2-methoxycarbonyl-acetylamino)-propionyl]-methyl-amino}-hexanoylamino)-succinamic acid] (X2-W[NMeNle]DF-NH2) |
| 0.54 | CCCC[C@@H](C(=O)N[C@@H](CC(=O)O)C(=O)N[C@@H](Cc1ccccc1)C(N)=O)N(C)C(=O)[C@H](Cc1c[nH]c2ccccc12)NC(=O)CS(=O)(=O)O [N-(1-Carbamoyl-2-phenyl-ethyl)-3-(2-{[3-(1H-indol-3-yl)-2-(2-sulfo-acetylamino)-propionyl]-methyl-amino}-hexanoylamino)-succinamic acid] (X3-W[NMeNle]DF-NH2) |
| 3.84 | CCCC[C@@H](C(=O)N[C@@H](CC(=O)O)C(=O)N[C@@H](Cc1ccccc1)C(N)=O)N(C)C(=O)[C@H](Cc1c[nH]c2ccccc12)NC(=O)CC(C)=O [N-(1-Carbamoyl-2-phenyl-ethyl)-3-(2-{[3-(1H-indol-3-yl)-2-(3-oxo-butyrylamino)-propionyl]-methyl-amino}-hexanoylamino)-succinamic acid] (X4-W[NMeNle]DF-NH2) |
| 1.37 | CCCC[C@@H](C(=O)N[C@@H](CC(=O)O)C(=O)N[C@@H](Cc1ccccc1)C(N)=O)N(C)C(=O)[C@H](Cc1c[nH]c2ccccc12)NC(=O)C(C)C [N-(1-Carbamoyl-2-phenyl-ethyl)-3-(2-{[3-(1H-indol-3-yl)-2-isobutyrylamino-propionyl]-methyl-amino}-hexanoylamino)-succinamic acid] (Isobutyryl-W[NMeNle]DF-NH2) |

| Compound | Ki [nM] |
| --- | --- |
| CCCC[C@@H](C(=O)N[C@@H](CC(=O)O)C(=O)N[C@@H](Cc1ccccc1)C(N)=O)N(C)C(=O)[C@H](Cc1c[nH]c2ccccc12)NC(=O)CCNC(=O)OC(C)(C)C [3-(2-{[2-(3-tert-Butoxycarbonylamino-propionylamino)-3-(1H-indol-3-yl)-propionyl]-methyl-amino}-hexanoylamino)-N-(1-carbamoyl-2-phenyl-ethyl)-succinamic acid] ({Boc-βAla}-W[NMeNle]DF-NH2) | 1.35 |
